ChEMBL document CHEMBL4184249, “Structural development of tetrachlorophthalimides as liver X receptor β (LXRβ)-selective agonists with improved aqueous solubility” (Bioorg Med Chem Lett, 2018)
Activity calls are given as the source filed them. No cut-off for these calls is given here.

What was measured:
[1] = target: T1, Oxysterols receptor LXR-beta (Homo sapiens, UniProt P55055); assay: Agonist activity at human LXRbeta expressed in HEK293 cells co-expressing CMX-beta-galactosidase incubated for 16 hrs by luciferase reporter gene assay; assay type: cell-based
T1 sequence (P55055 whole entry): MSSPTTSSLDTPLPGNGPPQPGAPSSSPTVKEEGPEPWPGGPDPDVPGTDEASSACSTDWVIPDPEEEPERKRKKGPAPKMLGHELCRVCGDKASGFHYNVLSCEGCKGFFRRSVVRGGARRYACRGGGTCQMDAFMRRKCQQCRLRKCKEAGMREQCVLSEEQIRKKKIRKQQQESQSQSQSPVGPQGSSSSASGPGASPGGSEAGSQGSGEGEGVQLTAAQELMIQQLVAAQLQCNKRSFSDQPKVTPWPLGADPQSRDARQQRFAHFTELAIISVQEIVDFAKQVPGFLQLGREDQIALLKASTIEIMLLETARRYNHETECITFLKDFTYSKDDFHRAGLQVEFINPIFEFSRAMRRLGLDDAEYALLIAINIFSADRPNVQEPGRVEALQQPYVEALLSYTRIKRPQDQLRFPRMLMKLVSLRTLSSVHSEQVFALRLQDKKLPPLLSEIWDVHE

[2] = target: T2, Retinoic acid receptor beta (Homo sapiens) (UniProt P10826); assay: Agonist activity at GAL4-tagged RARbeta (unknown origin) expressed in HEK293 cells co-expressing CMX-beta-galactosidase at 0.3 to 30 uM incubated for 16 hrs by luciferase reporter gene assay; assay type: cell-based
T2 sequence (whole entry): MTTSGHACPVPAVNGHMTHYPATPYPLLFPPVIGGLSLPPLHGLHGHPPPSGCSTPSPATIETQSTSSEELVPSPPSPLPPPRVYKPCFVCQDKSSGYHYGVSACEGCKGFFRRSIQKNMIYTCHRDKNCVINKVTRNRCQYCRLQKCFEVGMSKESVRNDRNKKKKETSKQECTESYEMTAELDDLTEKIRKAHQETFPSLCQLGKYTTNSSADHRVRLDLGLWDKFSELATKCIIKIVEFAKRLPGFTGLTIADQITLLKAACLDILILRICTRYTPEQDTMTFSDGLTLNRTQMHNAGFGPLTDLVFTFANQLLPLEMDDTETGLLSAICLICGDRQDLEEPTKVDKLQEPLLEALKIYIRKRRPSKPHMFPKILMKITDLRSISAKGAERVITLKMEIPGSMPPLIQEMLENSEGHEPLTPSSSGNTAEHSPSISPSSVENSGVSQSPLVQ

[3] = target: T3, Peroxisome proliferator-activated receptor gamma (Homo sapiens) (UniProt P37231); assay: Agonist activity at GAL4-tagged PPARgamma (unknown origin) expressed in HEK293 cells co-expressing CMX-beta-galactosidase at 0.3 to 30 uM incubated for 16 hrs by luciferase reporter gene assay; assay type: cell-based
T3 sequence (whole entry): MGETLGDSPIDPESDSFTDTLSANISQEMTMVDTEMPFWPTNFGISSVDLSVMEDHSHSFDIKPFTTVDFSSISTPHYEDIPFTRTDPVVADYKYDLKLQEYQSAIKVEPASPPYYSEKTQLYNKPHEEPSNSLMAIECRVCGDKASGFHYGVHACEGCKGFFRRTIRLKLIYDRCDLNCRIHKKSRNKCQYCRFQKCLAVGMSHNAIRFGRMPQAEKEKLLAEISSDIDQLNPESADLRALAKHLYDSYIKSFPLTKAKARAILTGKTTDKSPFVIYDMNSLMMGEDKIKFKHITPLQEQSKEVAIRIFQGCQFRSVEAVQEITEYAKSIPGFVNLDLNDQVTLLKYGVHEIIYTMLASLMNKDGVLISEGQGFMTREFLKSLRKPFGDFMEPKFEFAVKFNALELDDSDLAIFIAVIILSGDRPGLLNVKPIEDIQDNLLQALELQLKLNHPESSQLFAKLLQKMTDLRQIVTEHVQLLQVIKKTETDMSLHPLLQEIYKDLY

[4] = target: T4, Retinoic acid receptor RXR-gamma (Homo sapiens) (UniProt P48443); assay: Agonist activity at GAL4-tagged RXRgamma (unknown origin) expressed in HEK293 cells co-expressing CMX-beta-galactosidase at 0.3 to 30 uM incubated for 16 hrs by luciferase reporter gene assay; assay type: cell-based
T4 sequence (whole entry): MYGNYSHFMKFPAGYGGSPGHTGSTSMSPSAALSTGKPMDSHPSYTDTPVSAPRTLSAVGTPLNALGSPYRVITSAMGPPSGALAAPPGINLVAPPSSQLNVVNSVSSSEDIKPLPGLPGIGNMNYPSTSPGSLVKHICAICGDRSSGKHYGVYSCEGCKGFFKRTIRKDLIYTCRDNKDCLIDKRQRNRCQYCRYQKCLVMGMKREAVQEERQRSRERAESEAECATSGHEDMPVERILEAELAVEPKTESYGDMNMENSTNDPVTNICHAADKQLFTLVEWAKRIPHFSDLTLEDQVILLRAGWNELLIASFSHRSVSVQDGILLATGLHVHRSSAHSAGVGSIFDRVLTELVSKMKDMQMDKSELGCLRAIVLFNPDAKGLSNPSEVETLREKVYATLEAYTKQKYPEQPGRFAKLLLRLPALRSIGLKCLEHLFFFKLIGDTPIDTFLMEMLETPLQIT

[5] = target: T5, Oxysterols receptor LXR-beta (Homo sapiens) (UniProt P55055); assay: Agonist activity at LXRbeta in human THP1 cells assessed as increase in ABCA1 mRNA expression at 0.1 uM by real-time quantitative RT-PCR method; assay type: cell-based
T5 sequence (whole entry): T1 sequence (P55055 whole entry)

[6] = target: T6, Peroxisome proliferator-activated receptor alpha (Homo sapiens) (UniProt Q07869); assay: Agonist activity at GAL4-tagged PPARalpha (unknown origin) expressed in HEK293 cells co-expressing CMX-beta-galactosidase at 0.3 to 30 uM incubated for 16 hrs by luciferase reporter gene assay; assay type: cell-based
T6 sequence (whole entry): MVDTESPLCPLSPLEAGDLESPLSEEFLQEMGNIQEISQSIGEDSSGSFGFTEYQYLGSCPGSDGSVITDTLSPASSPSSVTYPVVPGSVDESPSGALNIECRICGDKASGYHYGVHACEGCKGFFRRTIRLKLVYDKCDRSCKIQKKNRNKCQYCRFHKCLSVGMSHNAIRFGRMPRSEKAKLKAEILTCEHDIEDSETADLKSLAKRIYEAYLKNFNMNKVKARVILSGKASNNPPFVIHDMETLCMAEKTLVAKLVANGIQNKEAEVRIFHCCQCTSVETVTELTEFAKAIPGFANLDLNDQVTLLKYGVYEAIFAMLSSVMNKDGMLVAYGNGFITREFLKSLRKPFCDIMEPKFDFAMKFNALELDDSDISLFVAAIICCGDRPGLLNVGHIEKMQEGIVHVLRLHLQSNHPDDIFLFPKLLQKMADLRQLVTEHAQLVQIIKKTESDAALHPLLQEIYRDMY

[7] = target: Oxysterols receptor LXR-beta (Homo sapiens, UniProt P55055); assay: Agonist activity at LXRbeta ligand-binding domain (unknown origin) at 3 uM incubated for 1.5 hrs using fluorescein-labeled coactivator peptide by TR-FRET competitive binding assay relative to T0901317

EC50 [1]: 559 nM
Activity [2]: inactive
Activity [3]: inactive
Activity [4]: inactive
Activity [5]: Active
Activity [6]: inactive
Efficacy [7]: 14%
SMILES: O=C1c2c(Cl)c(Cl)c(Cl)c(Cl)c2C(=O)N1c1ccccc1/C=C/c1cccs1
